Assay [1] addresses T1, Full-length PRMT5 enzyme co-expressed with MEP50 (Homo sapiens (Human), UniProt O14744). In words: PRMT5 Biochemical Assay. The conditions noted are these: 200 nM histone H4 derived peptide substrate, 1 μM S-Adenosyl methionine, 4 hours at 37° C, Transcreener EPIGEN fluorescence polarisation. Here is the method:
Compounds of the invention may be tested for in vitro activity in the following assay: A histone H4 derived peptide is used as substrate (amino acid sequence: […]NH2). Full-length PRMT5 enzyme (NCBI Reference sequence NP-006100.2) was co-expressed with Hiss-MEP50 in insect cells and purified via Nickel immobilized metal affinity and gel filtration chromatography (“the enzyme”).
The 6 μL assay reactions are run in Greiner brand black 384-well low volume plates. All reactions contained assay buffer (phosphate buffered saline, 0.01% (v/v) Tween-20, 0.01% (w/v) albumin from chicken egg white, 1 mM dithiothreitol, 200 nM peptide substrate, 1 μM S-Adenosyl methionine, and 15 ng/reaction enzyme, with the enzyme being omitted from negative control reactions. Compounds were added in a volume of 100 nL from dilution series prepared in DMSO, positive and negative control reactions receiving the same volume DMSO without compound. The plates were sealed with adhesive seals and incubated for 4 hours at 37° C. Reaction progress was measured using the Transcreener™ EPIGEN methyltransferase assay (BellBrook Labs, Madison, Wis.) as recommended by the manufacturer. To each reaction 2 μL detection mix were added, containing coupling enzymes, fluorescence polarisation tracer, and AMP antibody. Plates were incubated for 90 min before being read on a PerkinElmer EnVision™ plate reader in fluorescence polarisation mode.
(In general: Fluorescence polarisation rises when a labelled molecule tumbles more slowly, as on binding a larger partner.)

The test system of assay [2] is symmetrical dimethylation of arginine (Di-Methyl Histone H4R3) in cell line TE11. In words: PRMT5 Biomarker Assay. It counts as cell-based. The note with it: Homo sapiens, TE-11; TE11 cells, 72 h incubation, EpiQuik Global Di-Methyl Histone H4R3 ELISA, corrected for total protein. Here is the method:
(§1) Compounds of the invention may be tested for potency to inhibit symmetrical dimethylation of arginine in the following assay:
The cell line TE11 was seeded at a density of 12,000 cells per well in 96 well tissue culture plates in DME medium and 10% foetal bovine serum, and allowed to adhere overnight under standard culture conditions (37° C., 5% CO2). Compound dilutions prepared in DMSO were added to the medium, with negative control wells reserved for treatment with DMSO only and positive controls receiving a potent PRMT5 inhibitor. The concentration of the inhibitor had been previously determined to give maximum inhibition of the methylation. After incubation for 72 h, cells were washed twice in ice-cold PBS, lysed in lysis buffer (20 mM Tris pH 7.4, 135 mM NaCl, 1.5 mM MgCl2, 1 mM EGTA, 10% glycerol and 1% Triton-X100), centrifuged at 15,000×g and the supernatants collected for subsequent analysis. The methylation level was determined using the EpiQuik™ Global Di-Methyl Histone H4R3 Quantification ELISA Kit (Epigentek, Farmingdale, N.Y.) as per the manufacturer's recommendations; in parallel the total protein amount in the lysate was quantified using a Lowry protein assay. The methylation level was corrected for the total protein amount of each sample, normalised to the controls, and the data fitted against a four-parameter logistic model to determine the 50% inhibitory concentration (IC50).
A general note: An ELISA detects its analyte on a solid surface through an enzyme-linked reagent.

Assay [3] has as its target T1, Full-length PRMT5 enzyme co-expressed with MEP50. Nature of the assay: Revised PRMT5 Biochemical Assay. The note with it: 1 μM histone H4 derived peptide substrate, 1 μM S-Adenosyl methionine, 4 hours at 37 degree Celsius, Transcreener EPIGEN fluorescence polarisation. In short, it runs like this: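 Full-length human PRMT5 co-expressed with His-MEP50 in insect cells (15 ng/reaction), 1 μM H4-derived peptide and 1 μM SAM in PBS/0.01% Tween-20/egg albumin/1 mM DTT, 4 h at 37 °C. SAH formation read by Transcreener EPIGEN fluorescence polarisation after 90 min detection. IC50 from four-parameter fit of plate-normalised % inhibition.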

Assay [4] deals with symmetrical dimethylation of arginine (Di-Methyl Histone H4 Arginine 3) in cell line TE11. Nature of the assay: Revised PRMT5 Biomarker Assay. The note with it: Homo sapiens, TE-11; TE11 cells, 72 hours incubation, immunofluorescence, corrected for cell number (Hoechst 33342), plate reader based. Here is the method:
as §1
The cell line TE11 was seeded at a density of 6,000 cells per well in 96 well optical quality tissue culture plates in DME medium and 10% foetal bovine serum, and allowed to adhere for 5 hours under standard culture conditions (37 degree Celsius, 5% CO2). Compound dilutions prepared in DMSO were added to the medium, with negative control wells reserved for treatment with DMSO only and positive controls receiving a potent PRMT5 inhibitor compound at 1 μM concentration. After incubation for 72 hours, the cells were fixed with 3.7% formaldehyde in PBS for 30 minutes at room temperature, washed with phosphate buffer saline and blocked with Odyssey blocking buffer (LI-COR, Lincoln, Nebr.). Rabbit anti-Di-Methyl Histone H4 Arginine 3 specific antibody (Epigentek) in Odyssey blocking buffer was added and incubated for 14 hours at 4 degree Celsius. After washing, anti-rabbit secondary antibody labelled with Alexa647 dye (LifeTechnologies) and Hoechst 33342 (1 μg/mL, SigmaAldrich) were added for 1 hour incubation. Plates were washed and read on a PerkinElmer Envision 2103 in fluorescence intensity scanning mode (24 scans across the well area). The methylation level information was corrected for the number of cells as expressed by the Hoechst 33342 stain, converted to percent inhibition relative to controls on the same plate and the data fitted against a four-parameter logistic model to determine the 50% inhibitory concentration (IC50 plate-reader based). Alternatively, the plates were imaged on a PerkinElmer Phenix high content imaging platform. Using a Columbus image analysis pipeline, individual nuclei were located by Hoechst 33342 stain and the methylation level was calculated from the Alexa647-related intensity in the same area. The resulting mean intensity per cell was directly converted to percent inhibition as outlined above (IC50, imager based)).

One may read the IC50 as the midpoint of a concentration-inhibition curve. A lower IC50 goes with greater potency in that assay.

T1 sequence (O14744 whole entry): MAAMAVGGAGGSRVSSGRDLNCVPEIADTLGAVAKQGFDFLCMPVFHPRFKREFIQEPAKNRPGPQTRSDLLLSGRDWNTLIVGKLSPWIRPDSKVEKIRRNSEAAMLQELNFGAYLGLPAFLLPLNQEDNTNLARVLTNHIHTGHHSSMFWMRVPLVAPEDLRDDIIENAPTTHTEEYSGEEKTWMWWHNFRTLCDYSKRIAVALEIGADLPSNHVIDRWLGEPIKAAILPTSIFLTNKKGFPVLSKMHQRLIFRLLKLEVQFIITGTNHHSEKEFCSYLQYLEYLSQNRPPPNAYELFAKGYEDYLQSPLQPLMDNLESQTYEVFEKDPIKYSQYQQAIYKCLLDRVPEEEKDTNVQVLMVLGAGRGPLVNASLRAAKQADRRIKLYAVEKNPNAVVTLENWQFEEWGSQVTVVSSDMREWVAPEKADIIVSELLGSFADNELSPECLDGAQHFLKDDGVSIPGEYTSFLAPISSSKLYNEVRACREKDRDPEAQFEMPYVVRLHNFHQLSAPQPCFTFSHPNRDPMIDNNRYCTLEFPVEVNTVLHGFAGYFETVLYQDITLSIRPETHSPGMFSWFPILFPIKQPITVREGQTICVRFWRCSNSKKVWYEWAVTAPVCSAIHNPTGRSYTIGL
T1 sequence (Q9BQA1 whole entry partner): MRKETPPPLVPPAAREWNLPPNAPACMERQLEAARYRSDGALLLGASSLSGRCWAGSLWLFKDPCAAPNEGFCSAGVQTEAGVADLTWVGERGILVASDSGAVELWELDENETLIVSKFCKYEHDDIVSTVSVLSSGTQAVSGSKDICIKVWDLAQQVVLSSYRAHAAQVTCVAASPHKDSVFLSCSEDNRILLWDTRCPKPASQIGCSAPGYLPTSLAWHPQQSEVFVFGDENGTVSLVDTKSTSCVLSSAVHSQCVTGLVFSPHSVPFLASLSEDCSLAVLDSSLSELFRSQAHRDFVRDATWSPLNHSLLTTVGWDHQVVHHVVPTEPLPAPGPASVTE

`O=C(NCC(O)CNC1Cc2ccccc2C1)c1ccc(C(=O)N2CCOCC2)cc1` (stereo not drawn) [Compound 2, N-(3-((2,3-Dihydro-1H-inden-2-yl)amino)-2-hydroxypropyl)-4-(morpholine-4-carbonyl)benzamide]: the IC50 in assay [1] was determined as 310 nM; in assay [2] it was 69 nM.
With `CC(=O)N1CCC(Nc2cncc(C(=O)NCC(O)CNC3Cc4ccccc4C3)c2)CC1` (stereo not drawn) [Compound 53, 5-((1-Acetylpiperidin-4-yl)amino)-N-(3-((2,3-dihydro-1H-inden-2-yl)amino)-2-hydroxypropyl)nicotinamide], the results for the IC50 in assay [3] and in assay [4] were 164 nM and 0.662 µM, respectively.
Consider `CC(=O)N1CCC(Nc2cc(C(=O)NC[C@H](O)CNC3Cc4ccccc4C3)ccn2)CC1` [Compound 55, (R)-2-((1-Acetylpiperidin-4-yl)amino)-N-(3-((2,3-dihydro-1H-inden-2-yl)amino)-2-hydroxypropyl)isonicotinamide], for which the IC50 in assay [3] is 450 nM; in assay [4], 0.122 µM.
With `CC(=O)N1CCC(Nc2cc(C(=O)NC[C@@H](O)CNC3Cc4ccccc4C3)ccn2)CC1` [Compound 56, (S)-2-((1-Acetylpiperidin-4-yl)amino)-N-(3-((2,3-dihydro-1H-inden-2-yl)amino)-2-hydroxypropyl)isonicotinamide], the IC50 in assay [3] came to 98 nM; in assay [4], 0.007 µM.
On to `CC[C@H]1COCCN1C(=O)c1ccc(C(=O)NC[C@@H](O)CNC2Cc3ccccc3C2)cc1` [Compound 70, N-((S)-3-((2,3-dihydro-1H-inden-2-yl)amino)-2-hydroxypropyl)-4-((S)-3-ethylmorpholine-4-carbonyl)benzamide], for which the IC50 in assay [3] worked out at 157 nM; in assay [4] it was 0.015 µM.
For `CCOc1cc(C(=O)N2CCOCC2)ccc1C(=O)NC[C@@H](O)CNC1Cc2ccccc2C1` [Compound 75, (S)-N-(3-((2,3-dihydro-1H-inden-2-yl)amino)-2-hydroxypropyl)-2-ethoxy-4-(morpholine-4-carbonyl)benzamide] the same measures were 64 nM and 0.004 µM.
`CCOc1cc(C(=O)N2CCCC2)ccc1C(=O)NC[C@@H](O)CNC1Cc2ccccc2C1` [Compound 76, (S)-N-(3-((2,3-dihydro-1H-inden-2-yl)amino)-2-hydroxypropyl)-2-ethoxy-4-(pyrrolidine-1-carbonyl)benzamide]: the concentration for half-maximal inhibition (IC50) in assay [3] is 209 nM; in assay [4], 0.008 µM.
Turning to `CCOc1cc(C(=O)N2C3CCC2COC3)ccc1C(=O)NC[C@@H](O)CNC1Cc2ccccc2C1` [Compound 77, 4-(3-oxa-8-azabicyclo[3.2.1]octane-8-carbonyl)-N-((S)-3-((2,3-dihydro-1H-inden-2-yl)amino)-2-hydroxypropyl)-2-ethoxybenzamide], the results for the IC50 in assay [3] and in assay [4] were 29 nM and 0.0005 µM, respectively.
`O=C(NC[C@@H](O)CNC1Cc2ccccc2C1)c1ccc(C(=O)N2C3CCC2COC3)cc1` [Compound 103, 4-(3-oxa-8-azabicyclo[3.2.1]octane-8-carbonyl)-N-((S)-3-((2,3-dihydro-1H-inden-2-yl)amino)-2-hydroxypropyl)benzamide]: the IC50 in assay [3] came out at 120 nM; in assay [4], 0.017 µM.
As to `O=C(NC[C@@H](O)CNC1Cc2ccccc2C1)c1ccc(C(=O)N2CC3CCC(C2)O3)cc1` [Compound 105, 4-(8-oxa-3-azabicyclo[3.2.1]octane-3-carbonyl)-N-((S)-3-((2,3-dihydro-1H-inden-2-yl)amino)-2-hydroxypropyl)benzamide], the IC50 was found to be 196 nM in assay [3] and 0.01 µM in assay [4].
`CN(C[C@@H](O)CNC1Cc2ccccc2C1)C(=O)c1ccc(C(=O)N2CCOCC2)cc1` [Compound 111, (S)—N-(3-((2,3-Dihydro-1H-inden-2-yl)amino)-2-hydroxypropyl)-N-methyl-4-(morpholine-4-carbonyl)benzamide]: the IC50 is 10400 nM in assay [3] and over 2 µM in assay [4].
The corresponding values for `CCOc1cc(C(=O)N2CCS(=O)(=O)CC2)ccc1C(=O)NC[C@@H](O)CNC1Cc2ccccc2C1` [Compound 114, (S)-N-(3-((2,3-dihydro-1H-inden-2-yl)amino)-2-hydroxypropyl)-4-(1,1-dioxidothiomorpholine-4-carbonyl)-2-ethoxybenzamide] are 66 nM and 0.024 µM.
In the case of `O=C(NC[C@@H](O)CNC1Cc2ccccc2C1)c1ccc(C(=O)N2C3CCC2COC3)cc1Cl` [Compound 121, 4-(3-oxa-8-azabicyclo[3.2.1]octane-8-carbonyl)-2-chloro-N-((S)-3-((2,3-dihydro-1H-inden-2-yl)amino)-2-hydroxypropyl)benzamide], the IC50 in assay [3] worked out at 130 nM; in assay [4], 0.016 µM.
`CCOc1cc(C(=O)N2CCOC[C@H]2C)ccc1C(=O)NC[C@@H](O)CNC1Cc2ccccc2C1` [Compound 123, N-((S)-3-((2,3-dihydro-1H-inden-2-yl)amino)-2-hydroxypropyl)-2-ethoxy-4-((R)-3-methylmorpholine-4-carbonyl)benzamide]: the IC50 in assay [3] amounted to 40 nM; in assay [4] it was 0.012 µM.
For `CCOc1cc(C(=O)N2CCOC[C@@H]2CC)ccc1C(=O)NC[C@@H](O)CNC1Cc2ccccc2C1` [Compound 124, N-((S)-3-((2,3-dihydro-1H-inden-2-yl)amino)-2-hydroxypropyl)-2-ethoxy-4-((S)-3-ethylmorpholine-4-carbonyl)benzamide] the same measures were 48 nM and 0.013 µM.
Turning to `CCOc1cc(C(=O)N2C[C@H]3C[C@@H]2CO3)ccc1C(=O)NC[C@@H](O)CNC1Cc2ccccc2C1` [Compound 127, 4-((1R,4R)-2-oxa-5-azabicyclo[2.2.1]heptane-5-carbonyl)-N-((S)-3-((2,3-dihydro-1H-inden-2-yl)amino)-2-hydroxypropyl)-2-ethoxybenzamide], the IC50 in assay [3] was determined as 137 nM; in assay [4] it was 0.002 µM.
For `O=C(NC[C@@H](O)CNC1Cc2ccccc2C1)c1ccc(C(=O)N2C3CCC2COC3)cc1F` [Compound 133, 4-(3-oxa-8-azabicyclo[3.2.1]octane-8-carbonyl)-N((S)-3-((2,3-dihydro-1H-inden-2-yl)amino)-2-hydroxypropyl)-2-fluorobenzamide], the figures for the IC50 in assay [3] and in assay [4] were 131 nM and 0.009 µM, respectively.
The corresponding values for `CCOc1cc(C(=O)N2C3CCCC2COC3)ccc1C(=O)NC[C@@H](O)CNC1Cc2ccccc2C1` [Compound 135, 4-(3-Oxa-9-azabicyclo[3.3.1]nonane-9-carbonyl)-N—((S)-3-((2,3-dihydro-1H-inden-2-yl)amino)-2-hydroxypropyl)-2-ethoxybenzamide] are 15 nM and 0.0003 µM.

The values are drawn from patent US10005792B2, “Aminoindane-, aminotetrahydronaphthalene- and aminobenzocyclobutane-derived PRMT5-inhibitors” (CTXT PTY LTD, priority 2014, dated 2018).
